From patent US9499568B2, “Heterocyclic compound and use thereof” (Takeda Pharmaceutical Company Limited, priority 2010, dated 2016)

System: MAP-induced hyperlocomotion in male ICR mice
Assay: Inhibition of methamphetamine (MAP)-induced hyperlocomotion
Type: in vivo
Conditions: compound 10 mg/kg p.o. 60 min before MAP 2 mg/kg s.c., FIG. 1
Protocol: Male ICR mice were supplied by CLEA Japan, Inc (Japan). After arrival to the vivarium, animals were allowed a minimum of 1 week for acclimation. They were housed under a 12:12-h light/dark cycle in a temperature- and humidity-controlled laboratory and allowed food and water ad libitum.
A test compound was suspended in 0.5% methylcellulose in distilled water and orally administered (p.o.). Methamphetamine (Dainippon Sumitomo Pharma Co., Ltd.) was dissolved in saline and subcutaneously administered (s.c.). All drugs were dosed in a volume of 10 mL/kg body weight for mice.
The widely used animal models of psychosis have been the measurement of the extent of hyperlocomotion induced by psychostimulants (e.g., amphetamine, cocaine, methamphetamine, MK-801 and phencyclidine) in rodents (Psychopharmacology 1999, vol. 145: 237-250). 4 compounds (A, B, C, D) were tested for its ability to antagonize MAP-induced hyperlocomotion in mice. Male ICR mice were habituated in the locomotor chambers with infrared sensors (BrainScienceldea Co., Ltd. Japan) to the experiment. After the habituation, animals were treated with either vehicle or the compounds (10 mg/kg, p.o.), and MAP (2 mg/kg, s.c.) was administrated 60 min later. Locomotion activities were measured, and accumulated counts (120 min after administration of MAP) were calculated in each treatment group. All data were represented as means plus the standard errors of the means (n=3-9) and analyzed using Student's t-test with significance set at **P<0.01 and ***P<0.001 or Welch's t-test with significance set at ^$P<0.05, ^$$P<0.01 and ^$$$P<0.001.

| SMILES | inhibition of MAP-induced hyperlocomotion (accumulated locomotion counts 0-120 min) |
| --- | --- |
| O=S1(=O)CCN2C=CC=C(c3ccc(Oc4ccccc4)cc3)C2=N1 [A, 9-(4-phenoxyphenyl)-3,4-dihydropyrido[2,1-c][1,2,4]thiadiazine 2,2-dioxide] | significant inhibition |
| Cc1ccc(Oc2ccc(C3=CC=CN4CCS(=O)(=O)N=C34)cc2)cc1 [B, 9-[4-(4-methylphenoxy)phenyl]-3,4-dihydropyrido[2,1-c][1,2,4]thiadiazine 2,2-dioxide] | significant inhibition |
| CC1=CN2CCS(=O)(=O)N=C2C(c2ccc(OC3CCCCC3)cc2)=N1 [C, 9-[4-(cyclohexyloxy)phenyl]-7-methyl-3,4-dihydropyrazino[2,1-c][1,2,4]thiadiazine 2,2-dioxide] | significant inhibition |
| O=S1(=O)CCN2C=CC=C(c3ccc(OC4CCCCC4)cc3)C2=N1 [D, 9-[4-(cyclohexyloxy)phenyl]-3,4-dihydropyrido[2,1-c][1,2,4]thiadiazine 2,2-dioxide] | significant inhibition |
